Type in all cases: functional
Assay [1] deals with Athalia rosae ruficornis. Kind of assay: Pharmacophagous feeding stimulant activity in Athalia rosae ruficornis assessed as insect fed on paper for more than 10 seconds at 10^-6 g/filter paper.
The subject of assay [2] is Athalia rosae ruficornis. Kind of assay: Pharmacophagous feeding stimulant activity in Athalia rosae ruficornis assessed as insect fed on paper for more than 10 seconds at 10^-7 g/filter paper.
The test system of assay [3] is Athalia rosae ruficornis. Kind of assay: Pharmacophagous feeding stimulant activity in Athalia rosae ruficornis assessed as insect fed on paper for more than 10 seconds at 10^-5 g/filter paper.
The test system of assay [4] is Athalia rosae ruficornis. Kind of assay: Pharmacophagous feeding stimulant activity in Athalia rosae ruficornis assessed as insect fed on paper for more than 10 seconds at 10^-8 g/filter paper.

Structures are written as SMILES. Some results are limits rather than exact numbers.

In the case of `CC(=O)OC[C@@]12[C@@H](OC(C)=O)C[C@@H](C)[C@](C)([C@@H]3C[C@H]4C=CO[C@H]4O3)[C@H]1CC[C@H](OC(C)=O)[C@]21CO1` [3-EPICARYOPTIN], the Activity in assay [1], in assay [2], in assay [3] and in assay [4] was 80% throughout.
`CC(=O)OC[C@@]12[C@@H](OC(C)=O)C[C@@H](C)[C@](C)([C@@H]3C[C@H]4C=CO[C@H]4O3)[C@H]1C[C@@H](O)[C@H](OC(=O)C(C)C)[C@]21CO1` [AJUGACHIN A]: the Activity in assay [1], in assay [2], in assay [3] and in assay [4] was 80% throughout.
For the compound `C/C=C(\C)C(=O)O[C@@H]1CC[C@]2(CO2)[C@]2(COC(C)=O)[C@@H](OC(C)=O)C[C@@H](C)[C@](C)(C[C@H](O)C3=CC(=O)OC3)[C@@H]12` [AJUGAMARIN A1], the Activity in assay [1], in assay [2], in assay [3] and in assay [4] was <10% throughout.
Take `C/C=C(\C)C(=O)O[C@@H]1CC[C@]2(CO2)[C@]2(COC(C)=O)[C@@H](OC(C)=O)C[C@@H](C)[C@](C)(C[C@H](OC(=O)[C@@H](C)CC)C3=CC(=O)OC3)[C@@H]12` [AJUGAMARIN G1]: the Activity in assay [1], in assay [2], in assay [3] and in assay [4] was <10% in each case.
On to `C/C=C(\C)C(=O)O[C@@H](C[C@@]1(C)[C@H](C)C[C@H](OC(C)=O)[C@]2(COC(C)=O)[C@@H]1[C@H](OC(=O)[C@@H](C)CC)CC[C@]21CO1)C1=CC(=O)OC1` [AJUGAMARIN H1], for which the Activity in assay [1], in assay [2], in assay [3] and in assay [4] was <10% each time.
Consider `CC[C@H](C)C(=O)O[C@H]1CC(=O)[C@@H]2[C@@](C)(CCC3=CC(=O)OC3)[C@H](C)C[C@H](OC(C)=O)[C@@]2(COC(C)=O)[C@@]12CO2` [AJUGAREPTANSONE A], for which the Activity in assay [1] is <10%; in assay [2], <10%; in assay [3], 10%; in assay [4] it was <10%.
As for `C/C=C(\C)C(=O)O[C@@H](C[C@@]1(C)[C@H](C)C[C@H](OC(C)=O)[C@]2(COC(C)=O)[C@@H]1[C@H](OC(=O)/C(C)=C/C)CC[C@]21CO1)C1=CC(=O)OC1` [AJUGATAKASIN A], the Activity in assay [1], in assay [2], in assay [3] and in assay [4] was <10% each time.
With `CC[C@H](C)C(=O)O[C@@H](C[C@@]1(C)[C@H](C)C[C@H](OC(C)=O)[C@]2(COC(C)=O)[C@@H]1[C@H](OC(=O)[C@@H](C)CC)CC[C@]21CO1)C1=CC(=O)OC1` [AJUGATAKASIN B], the Activity in assay [1], in assay [2], in assay [3] and in assay [4] was <10% in each case.
`CC[C@H](C)C(=O)O[C@@H](C[C@@]1(C)[C@H](C)C[C@H](OC(C)=O)[C@]2(COC(C)=O)[C@@H]1CC[C@H](O)[C@]21CO1)C1=CC(=O)OC1` [AJUGATANSIN B1]: the Activity in assay [1], in assay [2], in assay [3] and in assay [4] was <10% throughout.
As to `CC(=O)OC[C@@]12[C@@H](OC(C)=O)C[C@@H](C)[C@](C)([C@@H]3C[C@H]4C=CO[C@H]4O3)[C@H]1C[C@@H](O)[C@H](O)[C@]21CO1` [ATHALIADIOL], the Activity is recorded as 80% in assay [1], 40% in assay [2], 80% in assay [3] and 40% in assay [4].
`CC[C@H](C)C(=O)O[C@@H](C[C@@]1(C)[C@H](C)C[C@H](OC(C)=O)[C@]2(COC(C)=O)[C@@H]1C(=O)C[C@H](O)[C@]21CO1)C1=CC(=O)OC1` [Ajugareptone]: the Activity in assay [1], in assay [2], in assay [3] and in assay [4] was <10% in each case.
For the compound `CC[C@@](C)(OC(C)=O)C(=O)O[C@H]1[C@H](O)C[C@@H]2[C@@](C)([C@@H]3C[C@H]4C=CO[C@H]4O3)C(C)=C[C@H](OC(C)=O)[C@@]2(COC(C)=O)[C@@]12CO2` [CLERODENDRIN A], the Activity in assay [1] is listed as 40%; in assay [2] it was <10%; in assay [3], 40%; in assay [4] it was <10%.
With `CC[C@@](C)(OC(C)=O)C(=O)O[C@H]1[C@H](O)C[C@@H]2[C@@](C)([C@@H]3C[C@H]4C=CO[C@H]4O3)[C@H](C)C[C@H](OC(C)=O)[C@@]2(COC(C)=O)[C@@]12CO2` [CLERODENDRIN B], the Activity is recorded as 80% in assay [1], 80% in assay [2], 80% in assay [3] and 40% in assay [4].
In the case of `CC[C@H](C)C(=O)O[C@H]1[C@H](O)C[C@@H]2[C@@](C)([C@@H]3C[C@H]4C=CO[C@H]4O3)[C@H](C)C[C@H](OC(C)=O)[C@@]2(COC(C)=O)[C@@]12CO2` [CLERODENDRIN D], the Activity in assay [1], in assay [2], in assay [3] and in assay [4] was 80% in each case.
With `CC(=O)OC[C@@]12[C@@H](OC(C)=O)C=C(C)[C@](C)([C@@H]3C[C@H]4C=CO[C@H]4O3)[C@H]1C[C@@H](O)[C@H](OC(=O)C(C)(C)OC(C)=O)[C@]21CO1` [CLERODENDRIN E], the Activity in assay [1] was 10%; in assay [2], <10%; in assay [3], 10%; in assay [4], <10%.
`CC(=O)OC[C@@]12[C@@H](OC(C)=O)C=C(C)[C@](C)([C@@H]3C[C@H]4C=CO[C@H]4O3)[C@H]1C[C@@H](O)[C@H](OC(=O)[C@](C)(OC(C)=O)[C@@H](C)OC(C)=O)[C@]21CO1` [CLERODENDRIN F]: the Activity in assay [1] was 10%; in assay [2], <10%; in assay [3], 10%; in assay [4] it was <10%.
With `CCC(C)C(=O)O[C@H]1[C@H](O)C[C@@H]2[C@@](C)([C@@H]3C[C@H]4C=CO[C@H]4O3)C(C)=C[C@H](OC(C)=O)[C@@]2(COC(C)=O)[C@@]12CO2` (some centres undefined) [CLERODENDRIN G], the Activity is 40% in assay [1], <10% in assay [2], 40% in assay [3] and <10% in assay [4].
`CC(=O)OC[C@@]12[C@@H](OC(C)=O)C[C@@H](C)[C@](C)([C@@H]3C[C@H]4C=CO[C@H]4O3)[C@H]1C[C@@H](O)[C@H](OC(=O)[C@](C)(OC(C)=O)[C@@H](C)OC(C)=O)[C@]21CO1` [CLERODENDRIN H]: the Activity in assay [1], in assay [2], in assay [3] and in assay [4] was 80% in each case.
On to `CC(=O)OC[C@@]12[C@@H](OC(C)=O)C=C(C)[C@](C)([C@@H]3C[C@H]4C=CO[C@H]4O3)[C@H]1C[C@@H](O)[C@H](OC(=O)[C@](C)(OC(C)=O)[C@H](C)OC(C)=O)[C@]21CO1` [CLERODENDRIN I], for which the Activity in assay [1] is listed as 10%; in assay [2], <10%; in assay [3] it was 10%; in assay [4], <10%.
`CC(=O)OC[C@@]12[C@@H](OC(C)=O)C[C@@H](C)[C@](C)([C@@H]3C[C@H]4C=CO[C@H]4O3)[C@H]1CCC[C@]21CO1` [CLERODIN]: the Activity is reported as 80% in assay [1], 80% in assay [2], 80% in assay [3] and 40% in assay [4].
With `CCC(C)C(=O)O[C@@H]1CC[C@]2(CO2)[C@]2(COC(C)=O)[C@@H](OC(C)=O)C[C@@H](C)[C@](C)(C[C@H](O)C3=CC(=O)OC3)[C@@H]12` (some centres undefined) [DIHYDROAJUGAMARIN], the Activity in assay [1], in assay [2], in assay [3] and in assay [4] was <10% throughout.

Source of the values: ChEMBL document CHEMBL3044742, “Pharmacophagous feeding stimulant activity of neo-clerodane diterpenoids for the turnip sawfly, Athalia rosae ruficornis” (2004).
